≈ marks a conversion by molar mass, not a printed value. Where two headings read alike, the source gives them in different places.
What was measured:
[1] = tested on: E. coli MG1655; experiment: Growth of wild type, thyA-carrying E. coli
[2] = molecular target: T1, ThyX (Paramecium bursaria Chlorella virus 1, UniProt O41156); experiment: biochemical
[3] = molecular target: T1, ThyX; conditions: varying dUMP concentrations
[4] = tested on: E. coli FE010 (ΔthyA::thyX); conditions: 1.5 μg/ml (≈5 μM), thymidine-deprived medium
[5] = molecular target: T2, PBCV-1 ThyX (Paramecium bursaria Chlorella virus 1, UniProt O41156); experiment: NADPH oxidation assay, screen and IC50 by dose-response curves
Experimental: The NADPH oxidation assay for PBCV-1 ThyX activity (Graziani, S., Xia, Y., Gurnon, J. R., Van Etten, J. L., Leduc, D., Skouloubris, S., Myllykallio, H., and Liebl, U. (2004) Functional analysis of FAD-dependent thymidylate synthase ThyX from Paramecium bursaria Chlorella virus-1. J. Biol. Chem. 279, 54340-54347) was adapted for a medium throughput inhibitor screen (MTS) in 96-well plates. A typical assay with a final volume of 200 μl, contained 200 μM NADPH, 2 μM CH2H4folate, 5 μM dUMP, 1 mM MgCl2, 1% glycerol, 62.5 μM FAD and 400 nM PBCV-1 ThyX. 1982 compounds from the National Cancer Institute diversity set 1 and 340 natural compounds, selected for their diversity and drug-likeness (GreenPharma) (all in DMSO) were added to a final concentration of 20 μM for the initial screen. The microplates were prepared by a liquid handling robotic workstation (Xiril X75), and manually transferred to the automated microplate reader Chameleon II (Hidex). The reactions were started by automatically injecting NADPH into individual wells and the decrease in absorbance at 340 nm was followed at 37° C. for 5 min. Samples with added DMSO and no enzyme were used as positive and negative controls, respectively. For NADPH oxidation at 340 nm a molar extinction coefficient of 6220 M^−1 cm^−1 was used. For this assay a Z′-factor value of 0.62 was calculated, is indicating robustness of the measurement and an acceptable dynamic range of the signal (Zhang, J. H., Chung, T. D., and Oldenburg, K. R. (1999) J. Biomol. Screen. 4, 67-73). Primary hits were defined as compounds that inhibited 75% of ThyX activity at the initial screening concentration.
Compounds that inhibited PBCV-1 ThyX at 20 μM concentration in the NADPH oxidation assay were selected as hits. For each hit IC50 values were determined by fitting the data from three independent experiments to the equation for a dose-response sigmoid curve using GraphPad Prism 4 Software (GraphPad Software Inc.).
All tests were performed in triplicates in 96 well microtiter plates. A typical assay (200 μL) contained 200 μM NADPH, 2 μM dUMP, 1 mM MgCl2, 1% glycerol, 10 μM FAD, 200 nM of PBCV-1 ThyX and different concentrations of inhibitors ranging from 0.1 μM to 40 μM. The reactions were started by injection of NADPH and the absorbance at 340 nm was followed for 3 min at 37° C. […] A molar extinction coefficient for NADPH oxidation at 340 nm of 6220 M^−1 cm^−1 was used for quantification of absorption changes. The optical path length was 0.5 cm. The obtained Vi/V0 values were plotted for each inhibitor concentration and fitted to sigmoidal dose-response curves using GraphPad Prism 4 Software.

[6] = tested on: Helicobacter pylori 26695; experiment: MIC by broth microdilution / disc diffusion test; format: cell-based
Experimental: Helicobacter pylori strain 26695 and SS1 were grown on either blood agar base two (Oxoid) plates supplemented with 10% defibrinated horse blood (Oxoid) or in liquid culture in brain-heart infusion broth (Oxoid) supplemented with 10% FBS (Gibco BRL). An antibiotics-fungicide mix consisting of vancomycin (final concentration 10 μg/ml), polymyxin B (2.5 units per liter), trimethoprim (5 μg/ml), and fungizone (2.5 μg/ml) was added. Plates were incubated at 37° C. under microaerobic atmosphere in jars using the […] gas generating system (Oxoid). Liquid cultures were shaken at 175 rpm. Minimal inhibitory concentrations (MICS) were determined using a broth microdilution test in 24 well microtiter plates. […] The MIC was determined as the lowest compound concentration resulting in complete growth inhibition after 24 h of incubation. All the tests were done in triplicates and they included no cells and DMSO-only controls. […] For disc diffusion test an overnight culture of H. pylori strain 26695 was diluted to OD600≈0.01 and spread on agar plates by inundation. 10 μg of each compound were deposited onto diffusion discs and plates were incubated under microaerophilic conditions for 72 h. The diameters of each inhibition zone were measured (disk surface and a DMSO inhibition zone were subtracted). All experiments were done in triplicate, including a DMSO-only control on each plate. MIC determination by broth microdilution was not possible for M. smegmatis mc2 155 due to build up of cell aggregates in liquid cultures. The susceptibility of M. smegmatis mc2 155 towards selected compounds was thus tested using disc diffusion test on LB-agar plates as described above. The inhibition diameters were read after 48 h of incubation at 37° C.

[7] = molecular target: T2, PBCV-1 ThyX; experiment: Deprotonation (tritium release) assay of ThyX activity; format: biochemical, Paramecium bursaria chlorella virus (PBCV-1); conditions: read-out: % inhibition (deprotonation) PBCV-1 ThyX
[8] = tested on: human lymphoblastoid TK6 cells; experiment: GreenScreen HC genotoxicity and cytotoxicity assay
Experimental: Two strains of cultured human lymphoblastoid TK6 cells were used, the test strain (GenM-T01) and the non-fluorescent control strain (GenM-001), the latter was used to allow correction for any autofluorescence from the test. The plates were analyzed at 24 hour and 48 hour time points using a microplate reader, that allows measurements of light absorbance and fluorescence for cells and solutions in the microplate wells. Absorbance is proportional to cell proliferation, which is lowered by toxic analytes, and fluorescence is proportional to the activity of the cell's DNA repair system, which is increased by genotoxic analytes. […] The GreenScreen HC +S9 protocol uses the same cultured TK6 cell strains (GenM-001 and GenMT01). […] (5% CO2, 95% humidity) for 3 hours. After a recovery period of 45 hours the GFP fluorescence signal and cell viability (assessed by propidium iodide uptake) were measured.

[9] = tested on: Mycobacterium smegmatis mc2 155; experiment: Disc diffusion test on LB-agar plates; format: cell-based
Experimental: Liquid cultures were shaken at 175 rpm. Minimal inhibitory concentrations (MICS) were determined using a broth microdilution test in 24 well microtiter plates. […] The MIC was determined as the lowest compound concentration resulting in complete growth inhibition after 24 h of incubation. All the tests were done in triplicates and they included no cells and DMSO-only controls. […] For disc diffusion test an overnight culture of H. pylori strain 26695 was diluted to OD600≈0.01 and spread on agar plates by inundation. 10 μg of each compound were deposited onto diffusion discs and plates were incubated under microaerophilic conditions for 72 h. The diameters of each inhibition zone were measured (disk surface and a DMSO inhibition zone were subtracted). All experiments were done in triplicate, including a DMSO-only control on each plate. MIC determination by broth microdilution was not possible for M. smegmatis mc2 155 due to build up of cell aggregates in liquid cultures. The susceptibility of M. smegmatis mc2 155 towards selected compounds was thus tested using disc diffusion test on LB-agar plates as described above. The inhibition diameters were read after 48 h of incubation at 37° C.

[10] = Helicobacter pylori, H. pylori 26695, broth microdilution 24 h or derived from disc diffusion standard curve, read-out: MIC

T2 sequence (O41156 whole entry, the tested form may be a part): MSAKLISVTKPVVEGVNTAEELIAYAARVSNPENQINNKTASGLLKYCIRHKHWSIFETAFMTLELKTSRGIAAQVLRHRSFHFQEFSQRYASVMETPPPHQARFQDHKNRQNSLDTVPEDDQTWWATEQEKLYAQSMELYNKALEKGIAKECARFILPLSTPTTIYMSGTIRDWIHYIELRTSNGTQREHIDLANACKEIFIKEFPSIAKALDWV
T1 sequence (O41156 whole entry): as the sequence (O41156 whole entry, the tested form may be a part) above

Row | Compound | IC50 [5] [µM] | MIC [6, 10] [µg/mL] | inhibition at 20 µM [7] [%] | other results
1 | O=C1C=C(Br)C(=O)c2c(O)cccc21 [Compound 2E04, 2-bromo-8-hydroxy-1,4-naphthoquinone] |  |  |  | bactericidal activity on isogenic wild type strain [1]: not observed; Ki [2]: 1.5 µM; effect on apparent Km of the enzyme for dUMP [3]: increased the apparent Km value; growth inhibition of E. coli FE010 (ΔthyA::thyX) [4]: reproducibly inhibited
2 | COc1ccc(C2=C(O)C(=O)c3ccccc3C2=O)cc1 [Compound A3-C2] | 8 | 4.7 (≈ 16.8 µM) |  | 
3 | Cc1ccc(C2=C(O)C(=O)c3ccccc3C2=O)cc1 [Compound A4-C2] | 9 | 4.7 (≈ 17.8 µM) |  | 
4 | O=C1C(O)=C(Cc2ccccc2)C(=O)c2ccccc21 [Compound A4-S] | 1.4 | 1.4 (≈ 5.3 µM) |  | 
5 | O=C1C(O)=C(c2ccc3ccccc3c2)C(=O)c2ccccc21 [Compound A7-S] | 1.2 | 6 (≈ 20 µM) |  | 
6 | O=C(O)c1ccccc1NC1=CC(=O)c2c(O)cccc2C1=O [Compound B3-C1, 2-(5-hydroxy-1,4-dioxo-1,4-dihydro-naphthalen-2-ylamino)benzoic acid] |  |  | 12 ± 6 | 
7 | COc1ccc(CC2=C(O)C(=O)c3ccccc3C2=O)cc1 [Compound C8-C1, 2-hydroxy-3-(4-methoxybenzyl)-1,4-naphthoquinone] | 5 | 2.5 to 5 (≈ 8.49 to 17 µM) | 78 ± 4 | growth inhibition / antimicrobial activity against Helicobacter pylori 26695 [6]: inhibited the growth; MIC ([6]; Helicobacter pylori, 26695, disc diffusion tests and liquid cultures, read-out: minimal inhibitory concentration (MIC)): ~2.5 µg/mL (≈ 8.49 µM); Ki [2]: 0.25 µM; effect on apparent Km of the enzyme for dUMP [3]: increased the apparent Km value; genotoxicity ([8]; GreenScreen HC): non-genotoxic; cytotoxic activity in metabolic activation tests ([8]; S9 fraction, 10 μg/ml): further decreased; cytotoxic activity ([8]; without metabolic activation): low cytotoxic activity; growth inhibition / antimicrobial activity against Mycobacterium smegmatis mc2155 [9]: inhibited the growth
8 | O=C1C(O)=C(c2ccc(Br)cc2)C(=O)c2ccccc21 [Compound C8-S] | 1.2 |  |  | MIC ([6]; Helicobacter pylori, 26695, 24 h): 7 µg/mL (≈ 21.3 µM)
9 | O=C(CC1=C(O)C(=O)c2ccccc2C1=O)c1ccccc1 [Compound E11-C1, 2-hydroxy-3-(2-oxo-2-phenylethyl)-1,4-naphthoquinone] |  |  | 36 ± 5 | 
10 | Cc1ccc(C(=O)CC2=C(O)C(=O)c3ccccc3C2=O)cc1 [Compound F3-C1, 2-hydroxy-3-(2-oxo-2-p-tolylethyl)-1,4-naphthoquinone] |  |  | 38 ± 7 | 
11 | O=C1C(O)=C(c2ccc(-c3ccccc3)cc2)C(=O)c2ccccc21 [Compound F6-C1, 2-(biphenyl-4-yl)-3-hydroxy-1,4-naphthoquinone] | 0.2 | 10 (≈ 30.6 µM) | 95 ± 3 | 
12 | COc1ccc(C(=O)CC2=C(O)C(=O)c3ccccc3C2=O)cc1 [Compound G3-C1, 2-hydroxy-3-(2-(4-methoxyphenyl)-2-oxoethyl)-1,4-naphthoquinone] | 13 | 10 (≈ 31 µM) | 22 ± 7 | 
13 | O=C(CC1=C(O)C(=O)c2ccccc2C1=O)c1cccs1 [Compound H3-C1, 2-hydroxy-3-(2-oxo-2-(thiophen-2-yl)ethyl)-1,4-naphthoquinone] | 8 | 10 (≈ 33.5 µM) | 38 ± 3 | 
14 | O=C1C(O)=C([C@H]2CC[C@H](c3ccc(Cl)cc3)CC2)C(=O)c2ccccc21 [atovaquone, reference compound] |  |  |  | Ki [2]: 5 µM; effect on apparent Km of the enzyme for dUMP [3]: increased the apparent Km value
